In PubChem BioAssay AID2060499 (Molecular Pharmacology Branch, DTP, NCI, 2025):

Test system: 777334-354-R2-J4-PDC tumor spheroids with HUVEC/MSC, viability
Test: Anticancer human tumor 777334-354-R2-J4-PDC patient-derived pancreatic adenocarcinoma cell line growth inhibition [GQUAD]
Conditions: for IC50: curve of first compound; for viability, T/C: stronger effect = lower value
Procedure, shortened: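 Multi-cell-type spheroids of tumor cells with HUVEC and mesenchymal stem cells, treated with drug combinations. Concentrations descend in half-log steps from near clinical Cmax, or from 10 microM where Cmax is unknown; viability read-out.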

[1] = second compound 0.0316 µM, first compound 0.0316 µM
[2] = second compound 0.0316 µM, first compound 0.1 µM
[3] = second compound 0.0316 µM, first compound 0.316 µM
[4] = second compound 0.0316 µM, first compound 1 µM
[5] = second compound 0.0316 µM, first compound 3.16 µM
[6] = second compound 0.0316 µM, first compound 10 µM
[7] = second compound 0.1 µM, first compound 0.0316 µM
[8] = second compound 0.1 µM, first compound 0.1 µM
[9] = second compound 0.1 µM, first compound 0.316 µM
[10] = second compound 0.1 µM, first compound 1 µM
[11] = second compound 0.1 µM, first compound 3.16 µM
[12] = second compound 0.1 µM, first compound 10 µM
[13] = second compound 0.316 µM, first compound 0.0316 µM
[14] = second compound 0.316 µM, first compound 0.1 µM
[15] = second compound 0.316 µM, first compound 0.316 µM
[16] = second compound 0.316 µM, first compound 1 µM
[17] = second compound 0.316 µM, first compound 3.16 µM
[18] = second compound 0.316 µM, first compound 10 µM
[19] = second compound 1 µM, first compound 0.0316 µM
[20] = second compound 1 µM, first compound 0.1 µM
[21] = second compound 1 µM, first compound 0.316 µM
[22] = second compound 1 µM, first compound 1 µM
[23] = second compound 1 µM, first compound 3.16 µM
[24] = second compound 1 µM, first compound 10 µM
[25] = second compound 3.16 µM, first compound 0.0316 µM
[26] = second compound 3.16 µM, first compound 0.1 µM
[27] = second compound 3.16 µM, first compound 0.316 µM
[28] = second compound 3.16 µM, first compound 1 µM
[29] = second compound 3.16 µM, first compound 3.16 µM
[30] = second compound 3.16 µM, first compound 10 µM
[31] = second compound 10 µM, first compound 0.0316 µM
[32] = second compound 10 µM, first compound 0.1 µM
[33] = second compound 10 µM, first compound 0.316 µM
[34] = second compound 10 µM, first compound 1 µM
[35] = second compound 10 µM, first compound 3.16 µM
[36] = second compound 10 µM, first compound 10 µM
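Further: spheroids exposed to compounds for 7 days before readout.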

## CCCS(=O)(=O)Nc1ccc(F)c(C(=O)c2c[nH]c3ncc(-c4ccc(Cl)cc4)cc23)c1F + Cc1cnc(CNC(=O)c2c(=O)c3ccc(N4CCCN(C)CC4)nc3n3c2sc2ccccc23)cn1
Second compound 0.0316 µM
  IC50: 7.16 µM
Second compound 0.1 µM
  IC50: 6.93 µM
Second compound 0.316 µM
  IC50: 6.74 µM
Second compound 1 µM
  IC50: 7.16 µM
Second compound 3.16 µM
  IC50: > 10 µM
Second compound 10 µM
  IC50: 3.87 µM
[1]
  viability, T/C: 99.3%
[2]
  viability, T/C: 89.1%
[3]
  viability, T/C: 105%
[4]
  viability, T/C: 94.3%
[5]
  viability, T/C: 106%
[6]
  viability, T/C: 30%
[7]
  viability, T/C: 83.5%
[8]
  viability, T/C: 88.7%
[9]
  viability, T/C: 104%
[10]
  viability, T/C: 95.5%
[11]
  viability, T/C: 88%
[12]
  viability, T/C: 32.1%
[13]
  viability, T/C: 88.7%
[14]
  viability, T/C: 91.7%
[15]
  viability, T/C: 69%
[16]
  viability, T/C: 92.6%
[17]
  viability, T/C: 93.3%
[18]
  viability, T/C: 30.7%
[19]
  viability, T/C: 68.8%
[20]
  viability, T/C: 77.6%
[21]
  viability, T/C: 78.5%
[22]
  viability, T/C: 71.2%
[23]
  viability, T/C: 74.9%
[24]
  viability, T/C: 40.2%
[25]
  viability, T/C: 59%
[26]
  viability, T/C: 61.1%
[27]
  viability, T/C: 68.9%
[28]
  viability, T/C: 71.2%
[29]
  viability, T/C: 72%
[30]
  viability, T/C: 43.1%
[31]
  viability, T/C: 52.7%
[32]
  viability, T/C: 48.6%
[33]
  viability, T/C: 68.2%
[34]
  viability, T/C: 68.4%
[35]
  viability, T/C: 65.2%
[36]
  viability, T/C: 0.24%

## COc1ncnc(C2CC2)c1-c1ncc2cnn(Cc3ccc(-c4nc(C(F)(F)F)cn4C(C)C)cc3)c2n1 + Cc1cnc(CNC(=O)c2c(=O)c3ccc(N4CCCN(C)CC4)nc3n3c2sc2ccccc23)cn1
Second compound 0.0316 µM
  IC50: > 10 µM
Second compound 0.1 µM
  IC50: > 10 µM
Second compound 0.316 µM
  IC50: > 10 µM
Second compound 1 µM
  IC50: > 10 µM
Second compound 3.16 µM
  IC50: > 10 µM
Second compound 10 µM
  IC50: > 10 µM
[1]
  viability, T/C: 106%
[2]
  viability, T/C: 94.8%
[3]
  viability, T/C: 101%
[4]
  viability, T/C: 92.5%
[5]
  viability, T/C: 106%
[6]
  viability, T/C: 95%
[7]
  viability, T/C: 91.5%
[8]
  viability, T/C: 83.8%
[9]
  viability, T/C: 97.6%
[10]
  viability, T/C: 80.8%
[11]
  viability, T/C: 92.4%
[12]
  viability, T/C: 90.3%
[13]
  viability, T/C: 82.8%
[14]
  viability, T/C: 81%
[15]
  viability, T/C: 72%
[16]
  viability, T/C: 85.8%
[17]
  viability, T/C: 87.8%
[18]
  viability, T/C: 86.5%
[19]
  viability, T/C: 65.3%
[20]
  viability, T/C: 75.7%
[21]
  viability, T/C: 67.4%
[22]
  viability, T/C: 76.3%
[23]
  viability, T/C: 77.4%
[24]
  viability, T/C: 82.1%
[25]
  viability, T/C: 64.3%
[26]
  viability, T/C: 73.5%
[27]
  viability, T/C: 55%
[28]
  viability, T/C: 65.7%
[29]
  viability, T/C: 80.8%
[30]
  viability, T/C: 70.3%
[31]
  viability, T/C: 55.5%
[32]
  viability, T/C: 63.6%
[33]
  viability, T/C: 57.9%
[34]
  viability, T/C: 59.2%
[35]
  viability, T/C: 58.2%
[36]
  viability, T/C: 56.7%

## O=C(NO)c1cnc(N2CCN(S(=O)(=O)c3ccc4ccccc4c3)CC2)nc1 + Cc1cnc(CNC(=O)c2c(=O)c3ccc(N4CCCN(C)CC4)nc3n3c2sc2ccccc23)cn1
Second compound 0.0316 µM
  IC50: 0.726 µM
Second compound 0.1 µM
  IC50: 0.332 µM
Second compound 0.316 µM
  IC50: 0.537 µM
Second compound 1 µM
  IC50: 0.474 µM
Second compound 3.16 µM
  IC50: 0.331 µM
Second compound 10 µM
  IC50: < 0.0316 µM
[1]
  viability, T/C: 83.7%
[2]
  viability, T/C: 71.9%
[3]
  viability, T/C: 77.2%
[4]
  viability, T/C: 39.7%
[5]
  viability, T/C: 3.07%
[6]
  viability, T/C: 0.21%
[7]
  viability, T/C: 90.3%
[8]
  viability, T/C: 63.1%
[9]
  viability, T/C: 55.2%
[10]
  viability, T/C: 36.6%
[11]
  viability, T/C: 5.24%
[12]
  viability, T/C: 0.33%
[13]
  viability, T/C: 69.3%
[14]
  viability, T/C: 72%
[15]
  viability, T/C: 53.8%
[16]
  viability, T/C: 42.7%
[17]
  viability, T/C: 5.34%
[18]
  viability, T/C: 0.23%
[19]
  viability, T/C: 65.6%
[20]
  viability, T/C: 60%
[21]
  viability, T/C: 55%
[22]
  viability, T/C: 37.7%
[23]
  viability, T/C: 4.8%
[24]
  viability, T/C: 0.13%
[25]
  viability, T/C: 49%
[26]
  viability, T/C: 53.8%
[27]
  viability, T/C: 50.2%
[28]
  viability, T/C: 31.5%
[29]
  viability, T/C: 0.68%
[30]
  viability, T/C: 0.12%
[31]
  viability, T/C: 50.2%
[32]
  viability, T/C: 44.8%
[33]
  viability, T/C: 48.4%
[34]
  viability, T/C: 0.22%
[35]
  viability, T/C: 2.65%
[36]
  viability, T/C: 0.22%
